Experimental data taken from patent US20120039917A1, “IMMUNO[…]” (priority 2008, published 2012).

Tests used:
proliferating T cells = assay: Cell proliferation measured by MTT reduction; assay type: cell-based; details: Homo sapiens, 48 h incubation, read-out: IC50 inhibition of MTT reduction (proliferation)
Description: (§1) Immediately prior to experiments, frozen PBMC were thawed, centrifuged at 1400 rpm in a Multifuge 3 s (Heraeus) for 4 min, washed in RPMI+10% FCS and resuspended in T cell medium (RPMI+10% FCS+10 μM 2-mercaptoethanol (Sigma), 1×glutamine, 1×non-essential amino acids (Gibco)) at 2×10^6 cells/mL. Cells (2×10^5) were activated by adding 10 μg/mL anti-CD3 and 5 μg/mL anti-CD28 and 20 U/mL IL-2 per well. Cells were incubated at 37° C. in a humidified incubator maintained at 5% CO2 for 4 to 5 days until large numbers of large spherical aggregates or “bursts” of lymphocytes were observed. Activated proliferating T cells were pooled from the wells for further experiments. Resting T cells were incubated for the same length of time but in the presence of 20 U/mL IL-2 only.
(§2) MTT reduction was measured as previously described (Berridge et al., 1996) in a microplate format as follows: exponentially growing cells were centrifuged at 1400 rpm in a Multifuge 3 s (Heraeus) for 4 min, washed and resuspended in HBSS buffer. […] After 2 h, 100 μL of lysing buffer was added and formazan crystals dissolved by manual pipetting using a multichannel pipette before measuring A570 in a BMG FLUOstar OPTIMA plate reader. […]

resting T cells = assay: Cell proliferation measured by MTT reduction; assay type: cell-based; details: Homo sapiens, 48 h incubation, read-out: IC50 inhibition of MTT reduction (proliferation)
Description: as §1, §2

Oc1ccc(C2=Cc3ccc(O)cc3OC2)cc1 [PXD, Isoflav-3-en-4′,7-diol]
IC50 (proliferating T cells): 5.4 µM
IC50 (resting T cells): > 200 µM
